Reference: US20260257039A1, “CONVECTION-ENHANCED THERMO-CHEMOTHERAPY CATHETER SYSTEM” (Board of Regents, The University of Texas System, priority 2022, published 2026)

Legend:
[1] = test system: excised pig brains
Experimental: The volume of solution that leaked into the ventricles was segmented into a separate mask (green).
In recent studies (see e.g. FIG. 62A-FIG. 62C) E. Y. Elenes et al., Journal of Engineering and Science in Medical Diagnostics and Therapy, 2020), the arborizing catheter, comprising six infusion ports, was compared to a reflux-preventing single-port catheter. Infusions of iohexol at a flow rate of 1 μL/min/microneedle were performed, using the arborizing catheter on one hemisphere and a single-port catheter on the contralateral hemisphere of excised pig brains. The volume dispersed (Va) of the contrast agent was quantified for each catheter using standard techniques (G. P. Mazzara, et al., International Journal of Radiation Oncology Biology Physics, 2004; and M. F. Dempsey, et al., American Journal of Neuroradiology, 2005).

[2] = test system: ex vivo porcine brains; conditions: contrast agent infusion, literature; cited from earlier work

CC(=O)N(CC(O)CO)c1c(I)c(C(=O)NCC(O)CO)c(I)c(C(=O)NCC(O)CO)c1I (centres unmarked) [iohexol]
Vd, arborizing catheter relative to single-port catheter [1]: approximately 6 times
voxels with a concentration between 10 and 15% [2]: ~40%
